Experimental data: patent US20030036532A1, “Use of 2-phenylene diamine derivatives for the treatment of infections” (priority 2000, published 2003)

Test system: Plasmodium falciparum
Assay: antimalarial activity in in vitro cultures of Plasmodium falciparum, inhibition of [3H]-hypoxanthine incorporation
Assay type: cell-based
Settings: inhibition of tritium incorporation relative to comparison without substance, 48 h + 24 h incubation; for % Inhibition at 1 μM: 1 μM compound; for % Inhibition at 10 μM / inhibition at 10 µM: 10 μM compound; for % Inhibition at 100 μM / inhibition at 100 µM: 100 μM compound; for inhibition at 10 µM / inhibition at 100 µM: Plasmodium falciparum
Description: To determine the anti-malaria activity, for example, the inhibition of the growth of malaria parasites in blood cultures is determined. […] The plates are incubated at 37° C., 3% CO2 and 5% O2 over a period of 48 hours. 30 μl of medium supplemented with 27 μCi ml^−1 [^3H]-hypoxanthine were then added to each well. After 24 hours' incubation, the parasites were harvested by filtration through glass fiber filters and the incorporated radioactivity was measured. Inhibition of parasite growth was measured as the percentage inhibition of tritium incorporation relative to a comparison without substance. The table states the percentage inhibition in dependence of the concentrations.

Row | Compound | % Inhibition at 1 μM [%] | % Inhibition at 10 μM [%] | % Inhibition at 100 μM [%] | inhibition at 10 µM [%] | inhibition at 100 µM [%]
1 | Cc1ccc(CC(=O)Nc2ccc(NC(=O)Cc3ccccc3)cc2C(=O)c2ccccc2)cc1 [compound 16] | 0 | 0 | 94 | – | –
2 | COC(=O)CCCC(=O)Nc1ccc(NC(=O)Cc2ccc(C)cc2)c(C(=O)c2ccccc2)c1 [example 6] | – | 0 | 98 | – | –
3 | N-[3-benzoyl-4-[2-(4-methylphenyl)acetyl]amino]phenyl]-4-(4-nitrophenyl)butyric Acid Amide [compound 31] | 0 | 93 | 96 | – | –
4 | Cc1ccc(CC(=O)Nc2ccc(NC(=O)C=Cc3ccc(OCc4ccccc4)cc3)cc2C(=O)c2ccccc2)cc1 [compound 24] | 85 | 96 | 97 | – | –
5 | CCCCCCCCCCCCCCCCC(=O)NCC(=O)Nc1ccc(NC(=O)Cc2ccc(C)cc2)c(C(=O)c2ccccc2)c1 [example 7, N-[2-[3-benzoyl-4-[[2-(4-methylphenyl)acetyl]amino]phenylamino]-2-oxoethyl]-heptadecanoic Acid Amide] | – | – | – | 0 | 83
6 | Cc1ccc(CC(=O)Nc2ccc(NC(=O)CCC3CCCCC3)cc2C(=O)c2ccccc2)cc1 [compound 18] | 9 | 98 | 98 | – | –
7 | Cc1ccc(CC(=O)Nc2ccc(NC(=O)COCc3ccccc3)cc2C(=O)c2ccccc2)cc1 [compound 30] | 0 | 93 | 97 | – | –
8 | Cc1ccc(CC(=O)Nc2ccc(NC(=O)c3cccc4ccccc34)cc2C(=O)c2ccccc2)cc1 [compound 26] | 0 | 65 | 93 | – | –
9 | Cc1ccc(CC(=O)Nc2ccc(NC(=O)CSCc3ccc([N+](=O)[O-])cc3)cc2C(=O)c2ccccc2)cc1 [compound 32] | 0 | 0 | 96 | – | –
10 | CCCCCCCCCCCCCCCCCCCC(=O)Nc1ccc(NC(=O)Cc2ccc(C)cc2)c(C(=O)c2ccccc2)c1 [compound 10, N-[3-benzoyl-4-[[2-(4-methylphenyl)acetyl]amino]phenyl]eicosanoic Acid Amide] | – | – | – | 0 | 99
11 | CCCCCCCCCCCCCCCC(=O)NCCC(=O)Nc1ccc(NC(=O)Cc2ccccc2)c(C(=O)c2ccccc2)c1 [compound 11, N-[3-[3-benzoyl-4-[(2-phenylacetyl)amino]phenylamino]-3-oxopropyl]-hexadecanoic Acid Amide] | – | – | – | 0 | 98
12 | Cc1ccc(CC(=O)Nc2ccc(NC(=O)CNC(=O)C=Cc3ccc(-c4ccccc4)cc3)cc2C(=O)c2ccccc2)cc1 [compound 12, N-[2-[3-benzoyl-4-[[2-(4-methylphenyl)acetyl]amino]phenylamino]-2-oxo-ethyl]-4-phenylcinnamic Acid Amide] | – | – | – | 67 | 89
13 | Cc1ccc(CC(=O)Nc2ccc(NC(=O)CCCC(=O)O)cc2C(=O)c2ccccc2)cc1 [example 5] | – | 0 | 59 | – | –
14 | N-[2-[3-benzoyl-4-[[2-(4-methylphenyl)acetyl]amino]phenylamino]-2-oxo-ethyl]-4-benzoic Acid Amide [compound 25] | 0 | 0 | 86 | – | –
15 | Cc1ccc(CC(=O)Nc2ccc(NC(=O)C=Cc3ccccc3)cc2C(=O)c2ccccc2)cc1 [compound 21] | 0 | 95 | 94 | – | –
16 | CCCCCCCCCCCCCCNC(=O)CCCC(=O)Nc1ccc(NC(=O)Cc2ccc(C)cc2)c(C(=O)c2ccccc2)c1 [example 9] | – | 0 | 96 | – | –

Row | Compound | % Inhibition at 1 μM [%] | % Inhibition at 10 μM [%] | % Inhibition at 100 μM [%] | inhibition at 10 µM [%] | inhibition at 100 µM [%]
17 | Cc1ccc(CC(=O)Nc2ccc(NC(=O)C3c4ccccc4-c4ccccc43)cc2C(=O)c2ccccc2)cc1 [compound 28] | 0 | 0 | 98 | – | –
18 | Cc1ccc(CC(=O)Nc2ccc(NC(=O)c3cccnc3)cc2C(=O)c2ccccc2)cc1 [compound 14, N-[3-benzoyl-4-[2-(4-methylphenyl)acetyl]amino]phenylnicotinic Acid Amide] | – | 0 | 34 | – | –
19 | Cc1ccc(CC(=O)Nc2ccc(NC(=O)C=Cc3ccc([N+](=O)[O-])cc3)cc2C(=O)c2ccccc2)cc1 [compound 22] | 0 | 82 | 88 | – | –
20 | COC(=O)CC(=O)Nc1ccc(NC(=O)Cc2ccc(C)cc2)c(C(=O)c2ccccc2)c1 [example 2] | – | 19 | 95 | – | –
21 | CCCCCCCCCCCCCCC(=O)NCCCC(=O)Nc1ccc(NC(=O)Cc2ccc(C)cc2)c(C(=O)c2ccccc2)c1 [example 8, N-[4-[3-benzoyl-4-[[2-(4-methylphenyl)acetyl]amino]phenylamino]-4-oxobutyl]-pentadecanoic Acid Amide] | – | – | – | 0 | 93
22 | Cc1ccc(CC(=O)Nc2ccc(NC(=O)CCCc3ccccc3)cc2C(=O)c2ccccc2)cc1 [compound 19] | 0 | 95 | 97 | – | –
23 | Cc1ccc(CC(=O)Nc2ccc(-c3ccccc3CNC(=O)CS)cc2C(=O)c2ccccc2)cc1 [compound 29] | 0 | 91 | 97 | – | –
24 | Cc1ccc(CC(=O)Nc2ccc(NC(=O)CCc3ccccc3)cc2C(=O)c2ccccc2)cc1 [compound 17] | 0 | 91 | 94 | – | –
25 | O=C(C=Cc1ccc(OCc2ccccc2)cc1)NCCC(=O)Nc1ccc(NC(=O)Cc2ccccc2)c(C(=O)c2ccccc2)c1 [compound 13, N-[3-[3-benzoyl-4-[(2-phenylacetyl)amino]phenylamino]-3-oxopropyl]-4-benzyl-oxycinnamic Acid Amide] | – | – | – | 97 | 95
26 | Cc1ccc(CC(=O)Nc2ccc(NC(=O)c3ccccc3)cc2C(=O)c2ccccc2)cc1 [compound 15] | 0 | 77 | 96 | – | –
27 | COC(=O)CCC(=O)Nc1ccc(NC(=O)Cc2ccc(C)cc2)c(C(=O)c2ccccc2)c1 [example 4] | – | 0 | 29 | – | –
28 | Cc1ccc(CC(=O)Nc2ccc(NC(=O)CCC(=O)O)cc2C(=O)c2ccccc2)cc1 [example 3] | – | 0 | 38 | – | –
29 | COC(=O)CC(=O)Nc1ccc(NC(=O)C(C)c2ccccc2)c(C(=O)c2ccccc2)c1 (stereo not shown) [example 1, 2-[N-[3-[3-benzoyl-4-(2-phenylpropionyl)amino]phenylamino]carbamoyl]acetic Acid Methylester] | – | 19 | 89 | – | –
30 | Cc1ccc(CC(=O)Nc2ccc(NC(=O)CCCCc3ccccc3)cc2C(=O)c2ccccc2)cc1 [compound 20] | 0 | 94 | 97 | – | –
31 | Cc1ccc(CC(=O)Nc2ccc(NC(=O)C=Cc3ccc(-c4ccccc4)cc3)cc2C(=O)c2ccccc2)cc1 [compound 23, N-[3-[3-benzoyl-4-[2-(4-methylphenyl)acetyl]amino]phenylamino]-4-phenyl-cinnamic Acid Amide] | 82 | 94 | 94 | – | –
